Laboratory results as given in publication PMC5587909, “Inhibition of the ATP Synthase Eliminates the Intrinsic Resistance of Staphylococcus aureus towards Polymyxins” (mBio, 2017).
Values after ≈ are worked out from the molar mass of the structure shown. Bridge positions count the residues as written; N and C are the ends. Square brackets hold non-standard residues; d marks the D form. Peptide text beside a SMILES is read from it. * marks the point of attachment. X1 = CC[C@H](C)CCCCC(=O)*; Dab = NCC[C@H](N)C(=O)O

Columns and labels:
Format in all cases: cell-based, Staphylococcus aureus
[1] = system: S. aureus JE2 atpB transposon mutant (SAUSA300_2064); details: Etest on TSA
Description: (§1) Staphylococcus aureus is intrinsically resistant to the clinically approved cationic antimicrobial peptides polymyxin B (PMB) and colistin ([1], [16]). […] The MIC for PMB was subsequently determined using Etests for the identified mutants. Nineteen mutants were confirmed to be at least 2-fold more susceptible than the WT (Table 1). As expected, we identified transposon insertions in graS, graR, vraF, and vraG, corroborating previous work on these determinants in S. aureus in relation to increased PMB susceptibility ([12]).
(§2) The strains used in this study include S. aureus strain JE2 (plasmid-cured derivative of USA300 LAC) and all derivative strains within the Nebraska Transposon Mutant Library (NTML), consisting of 1,920 unique transposon mutants with inactivation of nonessential genes ([15]). The bursa aurealis transposon used to create the collection contains the resistance cassette ermB, which confers resistance to erythromycin ([15]). Additionally we used S. aureus SA113 and two derivatives, SA113 ΔdltA ([9]) and SA113 ΔmprF ([10]). All bacterial strains were cultured at 37°C in tryptic soy broth (TSB) or on tryptic soy agar (TSA), with antimicrobial agents added as indicated. Two methods have been employed to determine MICs to various antimicrobial agents. (i) A 2-fold broth microdilution assay in TSB (100 µl) with an initial inoculum of approximately 5 × 10^5 cells/ml was employed to determine the MICs of polymyxin B sulfate (Sigma), gallidermin (Santa Cruz Biotechnology), nisin (Sigma), bacitracin (Sigma), and LL-37 (Isca Biochemicals). (ii) An Etest (BioMérieux) performed on TSA plates was employed to determine MICs for polymyxin B, colistin, ciprofloxacin, oxacillin, linezolid, gentamicin, vancomycin, and daptomycin. The MIC was determined upon incubation at 37°C for 22 h. When indicated, the Etest (BioMérieux) was performed on Mueller-Hinton agar plates (cation adjusted for calcium and magnesium).

[2] = system: S. aureus JE2 atpG transposon mutant (SAUSA300_2059); details: Etest on TSA
Description: as §1, §2

[3] = system: S. aureus JE2 atpH transposon mutant (SAUSA300_2061); details: Etest on TSA
Description: as §1, §2

[4] = system: S. aureus JE2 cbiO transposon mutant (SAUSA300_2176); details: Etest on TSA, 37°C, 22 h
Description: as §1, §2

[5] = system: S. aureus JE2 graS transposon mutant (SAUSA300_0646); details: Etest on TSA
Description: as §1, §2

[6] = system: S. aureus JE2 lspA transposon mutant (SAUSA300_1089); details: Etest on TSA, 37°C, 22 h
Description: as §1, §2

[7] = system: S. aureus JE2 transposon mutant SAUSA300_0918 (diacylglycerol glucosyltransferase); details: Etest on TSA, 37°C, 22 h
Description: as §1, §2

[8] = system: S. aureus JE2 transposon mutant SAUSA300_0980 (hypothetical protein); details: Etest on TSA, 37°C, 22 h
Description: as §1, §2

[9] = system: S. aureus JE2 transposon mutant SAUSA300_1254 (hypothetical protein); details: Etest on TSA, 37°C, 22 h
Description: as §1, §2

[10] = system: S. aureus JE2 transposon mutant SAUSA300_1495 (hypothetical protein); details: Etest on TSA, 37°C, 22 h
Description: as §1, §2

[11] = system: S. aureus JE2 transposon mutant SAUSA300_1785 (putative ABC transporter protein EcsB); details: Etest on TSA, 37°C, 22 h
Description: as §1, §2

[12] = system: S. aureus JE2 transposon mutant SAUSA300_1802 (hypothetical protein); details: Etest on TSA, 37°C, 22 h
Description: as §1, §2

[13] = system: S. aureus JE2 trkA transposon mutant (SAUSA300_0988); details: Etest on TSA, 37°C, 22 h
Description: as §1, §2

[14] = system: S. aureus JE2 vraS transposon mutant (SAUSA300_1866); details: Etest on TSA, 37°C, 22 h
Description: as §1, §2

[15] = system: S. aureus JE2 yajC transposon mutant (SAUSA300_1594); details: Etest on TSA, 37°C, 22 h
Description: as §1, §2

[16] = system: S. aureus JE2 (WT); assay: Kill curve experiment, polymyxin B with or without oligomycin A; details: WT JE2 in TSB; PMB alone at 0.25× MIC of WT; 4 h
Description: The ATP synthase is a well-described protein complex, and multiple inhibitors have been identified that interfere with its function—e.g., the macrolide oligomycin A ([32]). […] The combinatory efficacy of PMB and oligomycin A is similar to the observed killing efficacy of PMB against the atpA mutant.
FIG 4 Improved killing efficacy of PMB upon inhibition of the ATP synthase. […] The data represent the average from three measurements, with error bars showing 95% confidence intervals.
From overnight cultures of S. aureus JE2 and the derivative atpA mutant, 100 μl was diluted into 900 μl fresh TSB medium in a Falcon tube and grown for 1 h for the cells to reach the early exponential phase. After 1 h, the cultures were diluted into 10 ml fresh TSB medium in 100-ml Erlenmeyer flasks, reaching an initial cell count of approximately 10^6 cells/ml. Oligomycin A (Sigma) was added to flasks as indicated at a concentration of 8 μg/ml. […] CFU were determined on TSA plates before addition of oligomycin A (time zero [T0]), before addition of polymyxin B (time 30 min [T30]), and every hour for the following 4 h.

CC[C@H](C)CCCCC(=O)N[C@@H](CCN)C(=O)N[C@H](C(=O)N[C@@H](CCN)C(=O)N[C@H]1CCNC(=O)[C@H]([C@@H](C)O)NC(=O)[C@H](CCN)NC(=O)[C@H](CCN)NC(=O)[C@H](CC(C)C)NC(=O)[C@@H](Cc2ccccc2)NC(=O)[C@H](CCN)NC1=O)[C@@H](C)O [Polymyxin B, polymyxin B] (X1-[Dab]T[Dab][Dab][Dab][dF]L[Dab][Dab]T; lactam 4-C (inferred); N-terminus assumed)
MIC ([1]; 37°C, 22 h, atpB mutant): 16 µg/mL (≈ 13.3 µM)
fold reduction in MIC relative to WT ([1]; atpB mutant vs WT JE2): 8 fold
MIC ([2]; 37°C, 22 h, atpG mutant): 16 µg/mL (≈ 13.3 µM)
fold reduction in MIC relative to WT ([2]; atpG mutant vs WT JE2): 8 fold
MIC ([3]; 37°C, 22 h, atpH mutant): 16 µg/mL (≈ 13.3 µM)
fold reduction in MIC relative to WT ([3]; atpH mutant vs WT JE2): 8 fold
MIC [4]: 48 µg/mL (≈ 39.9 µM)
MIC ([5]; 37°C, 22 h, graS mutant): 24 µg/mL (≈ 19.9 µM)
fold reduction in MIC relative to WT ([5]; graS mutant vs WT JE2): 8 fold
MIC [6]: 64 µg/mL (≈ 53.2 µM)
MIC [7]: 64 µg/mL (≈ 53.2 µM)
MIC [8]: 48 µg/mL (≈ 39.9 µM)
MIC [9]: 48 µg/mL (≈ 39.9 µM)
MIC [10]: 64 µg/mL (≈ 53.2 µM)
MIC [11]: 48 µg/mL (≈ 39.9 µM)
MIC [12]: 64 µg/mL (≈ 53.2 µM)
MIC [13]: 48 µg/mL (≈ 39.9 µM)
MIC [14]: 64 µg/mL (≈ 53.2 µM)
MIC [15]: 64 µg/mL (≈ 53.2 µM)
killing efficacy (CFU over time) [16]: continued growth
